Source: patent US5530126A, “Process for the preparation of substituted 6-(pyrazol-3yl)-1,4-benzoxazin-3-ones” (Monsanto Company, priority 1994, dated 1996)

How the values were obtained:
Type in all cases: in vivo
Morningglory [1] = assay: Pre-emergence herbicide test; settings: Ipomoea, read-out: % plant inhibition (Mogl); for inhibition at 1120 g/ha: 1.12 kg/ha
In short: (§1)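 Pre-emergence soil application: compound in acetone or water carrier sprayed onto seeded topsoil surface, overlaid with untreated soil. Pans kept on greenhouse bench, watered from below. Read-out % inhibition, ~11 days post-treatment.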

Seedling johnsongrass [2] = assay: Pre-emergence herbicide test; settings: Sorghum halepense, read-out: % plant inhibition (Sejg); for inhibition at 1120 g/ha: 1.12 kg/ha
In short: as §1

Cocklebur [3] = assay: Pre-emergence herbicide test; settings: Xanthium strumarium, read-out: % plant inhibition (Cobu); for inhibition at 1120 g/ha: 1.12 kg/ha
In short: as §1

Barnyardgrass [4] = assay: Pre-emergence herbicide test; settings: Echinochloa crus-galli, read-out: % plant inhibition (Bygr); for inhibition at 1120 g/ha: 1.12 kg/ha
In short: as §1

Yellow nutsedge [5] = assay: Pre-emergence herbicide test; settings: Cyperus, read-out: % plant inhibition (Yens); for inhibition at 1120 g/ha: 1.12 kg/ha
In short: as §1

Annual bluegrass [6] = assay: Pre-emergence herbicide test; settings: read-out: % plant inhibition (Anbg); for inhibition at 1120 g/ha: 1.12 kg/ha
In short: as §1

Indian Mustard [7] = assay: Pre-emergence herbicide test; settings: Brassica juncea, read-out: % plant inhibition (Inmu); for inhibition at 1120 g/ha: 1.12 kg/ha
In short: as §1

Downy Brome [8] = assay: Pre-emergence herbicide test; settings: Bromus tectorum, read-out: % plant inhibition (Dobr); for inhibition at 1120 g/ha: 1.12 kg/ha
In short: as §1

Wild buckwheat [9] = assay: Pre-emergence herbicide test; settings: Fallopia convolvulus, read-out: % plant inhibition (Wibw); for inhibition at 1120 g/ha: 1.12 kg/ha
In short: as §1

Velvetleaf [10] = assay: Pre-emergence herbicide test; settings: Abutilon theophrasti, read-out: % plant inhibition (Vele); for inhibition at 1120 g/ha: 1.12 kg/ha
In short: as §1

Morningglory [11] = assay: Post-emergence herbicide test; settings: Ipomoea, read-out: % plant inhibition (Mogl); for inhibition at 1120 g/ha: 1.12 kg/ha
In short: (§2)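 Emerged annual and perennial plants (2–3 weeks) are sprayed with test compound in a carrier with ~0.4% emulsifier, 1870 L/Ha total volume, atomizer pressure 10 psig. Effects are expressed as % inhibition versus control at approximately 10–14 days and occasionally 24–28 days.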

Seedling johnsongrass [12] = assay: Post-emergence herbicide test; settings: Sorghum halepense, read-out: % plant inhibition (Sejg); for inhibition at 1120 g/ha: 1.12 kg/ha
In short: as §2

Cocklebur [13] = assay: Post-emergence herbicide test; settings: Xanthium strumarium, read-out: % plant inhibition (Cobu); for inhibition at 1120 g/ha: 1.12 kg/ha
In short: as §2

Barnyardgrass [14] = assay: Post-emergence herbicide test; settings: Echinochloa crus-galli, read-out: % plant inhibition (Bygr); for inhibition at 1120 g/ha: 1.12 kg/ha
In short: as §2

Yellow nutsedge [15] = assay: Post-emergence herbicide test; settings: Cyperus, read-out: % plant inhibition (Yens); for inhibition at 1120 g/ha: 1.12 kg/ha
In short: as §2

Annual bluegrass [16] = assay: Post-emergence herbicide test; settings: read-out: % plant inhibition (Anbg); for inhibition at 1120 g/ha: 1.12 kg/ha
In short: as §2

Indian Mustard [17] = assay: Post-emergence herbicide test; settings: Brassica juncea, read-out: % plant inhibition (Inmu); for inhibition at 1120 g/ha: 1.12 kg/ha
In short: as §2

Downy Brome [18] = assay: Post-emergence herbicide test; settings: Bromus tectorum, read-out: % plant inhibition (Dobr); for inhibition at 1120 g/ha: 1.12 kg/ha
In short: as §2

Wild buckwheat [19] = assay: Post-emergence herbicide test; settings: Fallopia convolvulus, read-out: % plant inhibition (Wibw); for inhibition at 1120 g/ha: 1.12 kg/ha
In short: as §2

Velvetleaf [20] = assay: Post-emergence herbicide test; settings: Abutilon theophrasti, read-out: % plant inhibition (Vele); for inhibition at 1120 g/ha: 1.12 kg/ha
In short: as §2

Row | Compound | inhibition at 1120 g/ha (Morningglory [1]) | inhibition at 1120 g/ha (Seedling johnsongrass [2]) | inhibition at 1120 g/ha (Cocklebur [3]) | inhibition at 1120 g/ha (Barnyardgrass [4]) | inhibition at 1120 g/ha (Yellow nutsedge [5]) | inhibition at 1120 g/ha (Annual bluegrass [6]) | inhibition at 1120 g/ha (Indian Mustard [7]) | inhibition at 1120 g/ha (Downy Brome [8]) | inhibition at 1120 g/ha (Wild buckwheat [9]) | inhibition at 1120 g/ha (Velvetleaf [10]) | inhibition at 1120 g/ha (Morningglory [11]) | inhibition at 1120 g/ha (Seedling johnsongrass [12]) | inhibition at 1120 g/ha (Cocklebur [13]) | inhibition at 1120 g/ha (Barnyardgrass [14]) | inhibition at 1120 g/ha (Yellow nutsedge [15]) | inhibition at 1120 g/ha (Annual bluegrass [16]) | inhibition at 1120 g/ha (Indian Mustard [17]) | inhibition at 1120 g/ha (Downy Brome [18]) | inhibition at 1120 g/ha (Wild buckwheat [19]) | inhibition at 1120 g/ha (Velvetleaf [20]) | other results
1 | Cn1nc(-c2cc(C3SCCS3)c(Cl)cc2F)c(Cl)c1C(F)(F)F [Compound 101] | 80% | 80% | 30% | 40% | 0% | 70% | 100% | 80% | 90% | 100% | 100% | 70% | 100% | 100% | 30% | 90% | 100% | 100% | 100% | 100% | –
2 | COc1cc(F)c(-c2c(Cl)c(C(F)(F)F)nn2C)cc1[N+](=O)[O-] [Compound 78] | – | – | – | – | – | – | – | – | – | – | – | – | – | – | – | – | – | – | – | – | inhibition at 11210 g/ha (Morningglory [1]; 11.21 kg/ha): 0%; inhibition at 11210 g/ha (Seedling johnsongrass [2]; 11.21 kg/ha): 0%; inhibition at 11210 g/ha (Cocklebur [3]; 11.21 kg/ha): 0%; inhibition at 11210 g/ha (Barnyardgrass [4]; 11.21 kg/ha): 0%; inhibition at 11210 g/ha (Yellow nutsedge [5]; 11.21 kg/ha): 0%; inhibition at 11210 g/ha (Annual bluegrass [6]; 11.21 kg/ha): 0%; inhibition at 11210 g/ha (Indian Mustard [7]; 11.21 kg/ha): 0%; inhibition at 11210 g/ha (Downy Brome [8]; 11.21 kg/ha): 0%; inhibition at 11210 g/ha (Wild buckwheat [9]; 11.21 kg/ha): 0%; inhibition at 11210 g/ha (Velvetleaf [10]; 11.21 kg/ha): 0%; inhibition at 11210 g/ha (Morningglory [11]; 11.21 kg/ha): 10%; inhibition at 11210 g/ha (Seedling johnsongrass [12]; 11.21 kg/ha): 10%; inhibition at 11210 g/ha (Cocklebur [13]; 11.21 kg/ha): 10%; inhibition at 11210 g/ha (Barnyardgrass [14]; 11.21 kg/ha): 0%; inhibition at 11210 g/ha (Yellow nutsedge [15]; 11.21 kg/ha): 0%; inhibition at 11210 g/ha (Annual bluegrass [16]; 11.21 kg/ha): 0%; inhibition at 11210 g/ha (Indian Mustard [17]; 11.21 kg/ha): 40%; inhibition at 11210 g/ha (Downy Brome [18]; 11.21 kg/ha): 10%; inhibition at 11210 g/ha (Wild buckwheat [19]; 11.21 kg/ha): 30%; inhibition at 11210 g/ha (Velvetleaf [20]; 11.21 kg/ha): 40%
3 | Cn1nc(-c2cc(C=NOCC(N)=O)c(Cl)cc2F)c(Cl)c1C(F)(F)F [Compound 131] | 100% | 70% | 80% | 40% | 20% | 0% | 90% | 30% | 100% | 100% | 100% | 50% | 100% | 0% | 30% | 20% | 40% | 20% | 100% | 100% | –
4 | Cn1nc(-c2cc(OCc3ccccn3)c(Cl)cc2F)c(Cl)c1C(F)(F)F [Compound 251] | 40% | 70% | 30% | 0% | 0% | 50% | 20% | 80% | 90% | 60% | 100% | 100% | 90% | 90% | 10% | 80% | 70% | 100% | 90% | 100% | –
5 | Cn1nc(-c2cc([N+](=O)[O-])c(Cl)cc2F)c(Cl)c1C(F)F [Compound 198] | 0% | 0% | 0% | 0% | 0% | 0% | 20% | 0% | 70% | 80% | 90% | 70% | 70% | 50% | 0% | 50% | 100% | 70% | 100% | 100% | –
